Literature values as cited in US11590127B2, “Gastro-resistant formulation containing posaconazole” (ALFRED E. TIEFENBACHER (GMBH & CO. KG), priority 2015, dated 2023).

aqueous solubility: low aqueous solubility
temperature above which it degrades (thermal degradation): above 160 °C
SMILES: CC[C@@H]([C@H](C)O)n1ncn(-c2ccc(N3CCN(c4ccc(OC[C@@H]5CO[C@@](Cn6cncn6)(c6ccc(F)cc6F)C5)cc4)CC3)cc2)c1=O [Posaconazole]
